Reference: US20240116985A1, “STAPLED PEPTIDES AND METHODS THEREOF” (priority 2020, published 2024)
Converted amounts (≈) assume the structure as drawn. Read-outs that look alike come from different tables or passages of the source.

Experiments:
[1] = target: T1, full-length beta-Catenin (Uniprot ID P35222) (Homo sapiens, UniProt P35222); assay: Fluorescence polarization IC50 (beta-catenin / 5FAM-TCF4 10-53 competition); assay type: binding
T1 construct: 10 nM full-length beta-Catenin (Uniprot ID P35222)
T1 sequence (P35222 1-781): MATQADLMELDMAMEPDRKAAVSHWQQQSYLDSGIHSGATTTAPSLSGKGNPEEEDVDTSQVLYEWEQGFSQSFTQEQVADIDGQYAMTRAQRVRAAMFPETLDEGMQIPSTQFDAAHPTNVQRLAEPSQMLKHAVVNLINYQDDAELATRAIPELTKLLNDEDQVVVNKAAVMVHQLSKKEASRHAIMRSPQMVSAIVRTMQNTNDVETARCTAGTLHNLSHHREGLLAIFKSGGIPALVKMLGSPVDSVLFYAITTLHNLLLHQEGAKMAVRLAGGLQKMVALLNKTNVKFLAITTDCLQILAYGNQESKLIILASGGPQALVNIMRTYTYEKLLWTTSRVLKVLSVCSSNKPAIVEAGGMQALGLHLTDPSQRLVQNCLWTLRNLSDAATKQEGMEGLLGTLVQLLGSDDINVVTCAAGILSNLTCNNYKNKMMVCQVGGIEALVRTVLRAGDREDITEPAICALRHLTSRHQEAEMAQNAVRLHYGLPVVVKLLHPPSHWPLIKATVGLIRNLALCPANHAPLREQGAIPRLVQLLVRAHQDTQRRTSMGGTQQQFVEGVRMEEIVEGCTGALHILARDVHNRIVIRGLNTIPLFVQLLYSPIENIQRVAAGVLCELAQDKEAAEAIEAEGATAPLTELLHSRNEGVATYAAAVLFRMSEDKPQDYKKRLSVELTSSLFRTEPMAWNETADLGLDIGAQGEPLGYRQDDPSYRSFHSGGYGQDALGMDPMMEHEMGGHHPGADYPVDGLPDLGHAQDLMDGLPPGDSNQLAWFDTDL

Solubility in PBS = assay type: physicochemical
Procedure, shortened: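 PBS sample ultracentrifuged; supernatant run on HPLC vs. 50 μM peptide in DMSO standard. Solubility = (PBS peak area / DMSO peak area) × 50 uM.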

CHI Log D procedure = assay type: physicochemical
[2] = fluorescence polarization, beta-catenin, read-out: FP EC50
[3] = fluorescence polarization, read-out: beta-Catenin FP IC50
[4] = Table E2-1, read-out: beta-Catenin FP IC50

Structure (SMILES) | Solubility (Solubility in PBS) | IC50 [1, 2] | CHI Log D (CHI Log D procedure; pH 7.4) | Solubility (Solubility in PBS; Solubility (uM)) | chromatographic logD (CHI Log D procedure; pH 7.4, CHI Log D) | IC50 [1, 3] | also measured
C[C@@H]1NC(=O)[C@H](C)NC(=O)[C@H](CC(=O)O)NC(=O)[C@H](CC(=O)O)NC(=O)C2(CCCC=CCCCOC(=O)N3CC[C@@](C(=O)N[C@@H](Cc4ccccc4Cl)C(=O)N[C@@H](Cc4csc5ccccc45)C(=O)N[C@@H](C(N)=O)[C@H](C)O)(C3)NC(=O)[C@H]([C@@H](C)O)NC(=O)[C@H](Cc3ccccc3)NC1=O)CCCC=CC[C@]1(CCCN1C(=O)CN=[N+]=[N-])C(=O)N[C@@H](CC(=O)O)C(=O)N[C@@H](CC(C)(C)C)C(=O)N2 (stereo partly drawn) [I-1060, AzAc-PL3-Asp-Npg-B5-Asp-Asp-Ala-Ala-Phe-Thr-PyrS2-2C1F-BztA-dThr-NH2] | 10 µM (≈ 19.5 µg/mL) | – | – | – | – | – | IC50 ([1]; FP EC50 (nM), fluorescence polarization, beta-catenin): 38 nM; chromatographic logD (CHI Log D procedure; pH 7.4): 2.6
CC(=O)N1CCC[C@]12CC=CCCCC1(CCCC=CCCCOC(=O)N3CC[C@@](C(=O)N[C@@H](Cc4ccsc4)C(=O)N[C@@H](Cc4csc5ccccc45)C(=O)N[C@@H](CO)C(N)=O)(C3)NC(=O)[C@H](CO)NC(=O)[C@H](Cc3ccccc3)NC(=O)[C@H](C)NC(=O)[C@H](C)NC(=O)[C@H](Cc3cccc(C(=O)O)c3)NC(=O)[C@H](CC(=O)O)NC1=O)NC(=O)[C@H](CC(C)(C)C)NC(=O)[C@H](CC(=O)O)NC2=O (stereo partly drawn) [I-985, Ac-PL3-Asp-Npg-B5-Asp-3COOHF-Ala-Ala-Phe-Ser-PyrS2-3Thi-BztA-Ser-NH2] | 47 µM (≈ 90.5 µg/mL) | 301 nM | 1.87 | – | – | – | IC50 ([1]; read-out: beta-Catenin FP IC50): 431 nM
CC[C@H](C)[C@@H]1NC(=O)[C@H](CC(=O)O)NC(=O)[C@]2(CC=CCCCC3(CCCC=CCCCCCC[C@@](C)(C(=O)N[C@@H](Cc4ccccc4)C(=O)N[C@@H](Cc4csc5ccccc45)C(=O)N[C@@H](CCC(N)=O)C(N)=O)NC(=O)[C@H](CCC(N)=O)NC(=O)[C@H](Cc4ccccc4)NC(=O)[C@H](C)NC(=O)[C@H](C)NC(=O)[C@H](CCCC(=O)O)NC(=O)[C@H](CC(=O)O)NC3=O)NC1=O)CCCN2C(C)=O (stereo partly drawn) [I-612, Ac-PL3-Asp-Ile-B5-Asp-Aad-Ala-Ala-Phe-Gln-S8-Phe-BztA-Gln-NH2] | 49 µM (≈ 93 µg/mL) | – | – | > 25 µM | 2.41 | – | IC50 ([1]; read-out: bCat FP IC50): 64 nM; chromatographic logD (CHI Log D procedure; pH 7.4, LogD): 2.4
CC[C@@H]1NC(=O)[C@H](CC(=O)O)NC(=O)[C@]2(CC=CCCCC3(CCCC=CCCCCCC[C@@](C)(C(=O)N[C@@H](Cc4ccccc4)C(=O)N[C@@H](Cc4csc5ccccc45)C(=O)N[C@@H](CCC(N)=O)C(N)=O)NC(=O)[C@H](CC(N)=O)NC(=O)[C@H](Cc4ccccc4)NC(=O)[C@H](C)NC(=O)[C@H](C)NC(=O)[C@H](CCC(=O)O)NC(=O)[C@H](CC(=O)O)NC3=O)NC1=O)CCCN2C(C)=O (stereo partly drawn) [I-473, Ac-PL3-Asp-Abu-B5-Asp-Glu-Ala-Ala-Phe-Asn-S8-Phe-BztA-Gln-NH2] | 39 µM (≈ 71.8 µg/mL) | – | 2.076 | – | – | 121 nM | IC50 ([1]; read-out: FP EC50): 121 nM
CC[C@H](C)[C@@H]1NC(=O)[C@H](CC(=O)O)NC(=O)[C@]2(CC=CCCCC3(CCCC=CCCCCCC[C@@](C)(C(=O)N[C@@H](Cc4ccccc4)C(=O)N[C@@H](Cc4csc5ccccc45)C(=O)N[C@@H](Cc4c[nH]cn4)C(N)=O)NC(=O)[C@H](CCC(N)=O)NC(=O)[C@H](Cc4cccs4)NC(=O)[C@H](C)NC(=O)[C@H](C)NC(=O)[C@H](CCC(=O)O)NC(=O)[C@H](CC(=O)O)NC3=O)NC1=O)CCCN2C(C)=O (stereo partly drawn) [I-488, Ac-PL3-Asp-Ile-B5-Asp-Glu-Ala-Ala-2Thi-Gln-S8-Phe-BztA-His-NH2] | – | – | – | 30 µM (≈ 56.9 µg/mL) | 2.4 | 43 nM | –
CC(=O)N1CCC[C@]12CC=CCCCC1(CCCC=CCCCCCC[C@@](C)(C(=O)N[C@@H](Cc3ccccc3)C(=O)N[C@@H](Cc3csc4ccccc34)C(=O)N[C@@H](CCC(N)=O)C(N)=O)NC(=O)[C@H](C(C)C)NC(=O)[C@H](Cc3ccccc3)NC(=O)[C@H](C)NC(=O)[C@H](C)NC(=O)[C@H](CC(=O)O)NC(=O)[C@H](CC(=O)O)NC1=O)NC(=O)[C@H](CCC(N)=O)NC(=O)[C@H](CC(=O)O)NC2=O (stereo partly drawn) [I-346, Ac-PL3-Asp-Gln-B5-Asp-Asp-Ala-Ala-Phe-Val-S8-Phe-BztA-Gln-NH2] | 44 µM (≈ 81.6 µg/mL) | 180 nM | 1.943 | – | – | – | IC50 [1, 4]: 180 nM
CC(=O)N1CCC[C@]12CC=CCCCC1(CCCC=CCCCCCC[C@@](C)(C(=O)N[C@@H](Cc3cccc(F)c3)C(=O)N[C@@H](Cc3csc4ccccc34)C(=O)N[C@@H](CCC(N)=O)C(N)=O)NC(=O)[C@H](C(C)C)NC(=O)[C@H](Cc3ccccc3)NC(=O)[C@H](C)NC(=O)[C@H](C)NC(=O)[C@H](CC(N)=O)NC(=O)[C@H](CC(=O)O)NC1=O)NC(=O)[C@H](C)NC(=O)[C@H](CC(=O)O)NC2=O (stereo partly drawn) [I-381, Ac-PL3-Asp-Ala-B5-Asp-Asn-Ala-Ala-Phe-Val-S8-3FF-BztA-Gln-NH2] | 10 µM (≈ 18.2 µg/mL) | 3650 nM | 2.636 | – | – | – | IC50 [1, 4]: 3650 nM
CC(=O)N1CCC[C@]12CC=CCCCC1(CCCC=CCCCCCC[C@@](C)(C(=O)N[C@@H](Cc3ccsc3)C(=O)N[C@@H](Cc3csc4ccccc34)C(=O)N[C@@H](Cc3c[nH]cn3)C(N)=O)NC(=O)[C@H](CC(N)=O)NC(=O)[C@H](Cc3ccccc3)NC(=O)[C@H](C)NC(=O)[C@H](C)NC(=O)[C@H](CN(CC(=O)O)CC(F)(F)F)NC(=O)[C@H](CC(=O)O)NC1=O)NC(=O)[C@H](CC(C)(C)C)NC(=O)[C@H](CC(=O)O)NC2=O (stereo partly drawn) [I-705, Ac-PL3-Asp-Npg-B5-Asp-TfeGA-Ala-Ala-Phe-Asn-S8-3Thi-BztA-His-NH2] | – | – | – | 25 µM (≈ 49.9 µg/mL) | 2.89 | 58 nM | –
CC(=O)N1CCC[C@]12CC=CCCCC1(CCCC=CCCCOC(=O)N3CC[C@@](C(=O)N[C@@H](Cc4ccsc4)C(=O)N[C@@H](Cc4csc5ccccc45)C(=O)N[C@@H](CCC(N)=O)C(N)=O)(C3)NC(=O)[C@H](CC(N)=O)NC(=O)[C@H](Cc3ccccc3)NC(=O)[C@H](C)NC(=O)[C@H](C)NC(=O)[C@H](CC(=O)O)NC(=O)[C@H](CC(=O)O)NC1=O)NC(=O)[C@H](CC(C)(C)C)NC(=O)C[C@H](CC(=O)O)NC2=O (stereo partly drawn) [I-1159, Ac-PL3-RbGlu-Npg-B5-Asp-Asp-Ala-Ala-Phe-Asn-PyrS2-3Thi-BztA-Gln-NH2] | – | – | – | 45 µM (≈ 86.9 µg/mL) | 1.88 | 61 nM | –
CC[C@@H](C)[C@@H](NC(=O)[C@H](CCC(N)=O)NC(=O)[C@H](Cc1csc2ccccc12)NC(=O)[C@H](Cc1ccccc1)NC(=O)[C@]1(C)CCCCCCC=CCCCC2(CCCC=CC[C@]3(CCCN3C(C)=O)C(=O)N[C@@H](CC(=O)O)C(=O)N[C@@H](CC(C)C)C(=O)N2)C(=O)N[C@@H](CC(=O)O)C(=O)N[C@@H](CCC(=O)O)C(=O)N[C@@H](C)C(=O)N[C@@H](C)C(=O)N[C@@H](Cc2ccccc2)C(=O)N[C@@H](CC(N)=O)C(=O)N1)C(N)=O (stereo partly drawn) [I-735, Ac-PL3-Asp-Leu-B5-Asp-Glu-Ala-Ala-Phe-Asn-S8-Phe-BztA-Gln-dIle-NH2] | 43 µM (≈ 85.2 µg/mL) | – | 2.738 | – | – | 246 nM | IC50 ([1]; read-out: FP EC50): 246 nM
CC(=O)N1CCC[C@]12CC=CCCCC1(CCCC=CCCCOC(=O)N3CC[C@@](C(=O)N[C@@H](Cc4ccccc4Cl)C(=O)N[C@@H](Cc4csc5ccccc45)C(=O)N[C@@H](CCC(N)=O)C(N)=O)(C3)NC(=O)[C@H](CC(C)C)NC(=O)[C@H](Cc3ccccc3)NC(=O)[C@H](C)NC(=O)[C@H](C)NC(=O)[C@H](CCC(=O)O)NC(=O)[C@H](CC(=O)O)NC1=O)NC(=O)[C@H](CC1CCCCC1)NC(=O)[C@H](CC(=O)O)NC2=O (stereo partly drawn) [I-1077, Ac-PL3-Asp-Cha-B5-Asp-Glu-Ala-Ala-Phe-Leu-PyrS2-2C1F-BztA-Gln-NH2] | 10 µM (≈ 19.9 µg/mL) | 324 nM | 2.06 | – | – | – | IC50 ([1]; read-out: beta-Catenin FP IC50): 324 nM
